# In paper PMC8662641, “Site-Specific Labeling of Endogenous Proteins Using CoLDR Chemistry” (Journal of the American Chemical Society, 2021):
# Like-named read-outs stand apart in the source and are kept apart here.
# What was measured:
# BTK kinase domain = BTK kinase domain (Homo sapiens, UniProt Q06187); assay: Labeling of recombinant BTK by intact protein LC/MS; type: binding; parameters: BTK kinase domain was expressed and purified as previously reported; made in house; settings: BTK 2 μM, 2a 2 μM, 10 min, 25 °C, pH 8
# Chain of BTK kinase domain (Q06187 402-655 limits assumed): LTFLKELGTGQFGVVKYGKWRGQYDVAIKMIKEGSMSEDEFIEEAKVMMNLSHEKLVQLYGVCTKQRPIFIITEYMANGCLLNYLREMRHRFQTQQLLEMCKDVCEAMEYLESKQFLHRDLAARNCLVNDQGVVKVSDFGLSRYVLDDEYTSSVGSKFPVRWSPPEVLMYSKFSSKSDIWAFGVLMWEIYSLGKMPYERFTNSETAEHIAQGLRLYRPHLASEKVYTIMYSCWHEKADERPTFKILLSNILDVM
# BTK [1] = biological target: T1, BTK (Homo sapiens, UniProt Q06187); assay: Degradation of BTK by a CoLDR PROTAC in Mino cells; type: cell-based; parameters: We incubated Mino B cells with probes containing different tags; endogenous in cells; host or cells: Mino cells; settings: for DC50: Mino cells, 24 h, Western blot
# Target sequence in this assay (Q06187 whole entry, the tested form may be a part): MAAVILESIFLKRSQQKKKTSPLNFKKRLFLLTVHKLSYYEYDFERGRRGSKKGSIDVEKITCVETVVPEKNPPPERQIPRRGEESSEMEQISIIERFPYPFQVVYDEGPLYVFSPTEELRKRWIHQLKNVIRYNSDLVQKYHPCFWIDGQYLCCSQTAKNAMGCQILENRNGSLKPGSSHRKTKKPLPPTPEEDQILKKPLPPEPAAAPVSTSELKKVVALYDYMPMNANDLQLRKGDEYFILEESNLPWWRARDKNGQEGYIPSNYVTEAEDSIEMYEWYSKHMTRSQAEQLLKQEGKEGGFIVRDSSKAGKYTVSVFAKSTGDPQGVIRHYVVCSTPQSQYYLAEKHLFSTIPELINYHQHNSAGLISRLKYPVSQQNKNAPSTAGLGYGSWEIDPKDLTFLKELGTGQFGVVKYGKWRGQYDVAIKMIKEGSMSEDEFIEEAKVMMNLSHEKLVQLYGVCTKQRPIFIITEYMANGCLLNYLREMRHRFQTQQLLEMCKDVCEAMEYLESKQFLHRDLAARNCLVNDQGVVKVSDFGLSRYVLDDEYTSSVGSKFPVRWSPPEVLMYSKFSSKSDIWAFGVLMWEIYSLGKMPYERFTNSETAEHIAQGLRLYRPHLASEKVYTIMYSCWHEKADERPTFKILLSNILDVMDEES
# BTK [2] = biological target: T1, BTK; parameters: BTK kinase domain was expressed and purified as previously reported; made in house; method as in Reddi et al., J. Am. Chem. Soc. 2021, 143 (13), 4979–4992; settings: ref Reddi et al., J. Am. Chem. Soc. 2021, 143 (13), 4979–4992; cited from earlier work
# Target sequence in this assay (Q06187 402-655 limits assumed): as the sequence (Q06187 402-655 limits assumed) above
# Aurora A = tested on: Aurora A; parameters: method as in selleck (supplier comment); settings: ref selleck (supplier comment); cited from earlier work
# BTK-1h = biological target: T2, BTK-1h (Homo sapiens, UniProt Q06187); assay: High-throughput screening with 1h-labeled BTK; type: binding
# T2 construct: The BTK kinase domain was diluted to 2 μM in the buffer, and 2 μM 1h was added; made in house
# T2 sequence (Q06187 402-655): as the sequence (Q06187 402-655 limits assumed) above
# Method: The collection was composed of BTK binding compounds obtained in our previous luminescence screen[37] (Data set S2). […] The resulting BTK-1h (50 μL) was added to the inhibitors.
# GSH reactivity assay = type: physicochemical; settings: for half-life at 100 μM: 5 mM GSH in potassium phosphate buffer/DMF, pH 8, read-out: GSH t1/2
# Method: A 100 μM (0.5 μL of a 20 mM stock) sample of the electrophile (1a–1m) was incubated with 5 mM GSH (5 μL of a 100 mM stock, freshly dissolved), 5 mM NaOH (to counter the acidity imparted by GSH), and 100 μM 4-nitrocyanobenzene (0.5 μL of a 20 mM stock solution) as an internal standard in 100 mM potassium phosphate buffer pH 8.0 and DMF at a ratio of 9:1, respectively. All solvents were bubbled with argon. Reaction mixtures were kept at 14 °C. Every 1 h 5 μL from the reaction mixture was injected into the LC/MS. The reaction was followed by the peak area of the electrophile normalized by the area of the 4-nitrocyanobenzene (i.e., by the disappearance of the starting material). The natural logarithm of the results was fitted to linear regression, and t1/2 was calculated as t1/2 = ln 2/–slope.
# BTK [3] = biological target: T1, BTK; assay: In-gel fluorescence labeling profile in Mino cells; settings: for labeling of BTK in live Mino cells: 2 h incubation, in-gel fluorescence
# Target sequence in this assay (Q06187 whole entry, the tested form may be a part): as the sequence (Q06187 whole entry, the tested form may be a part) above
# Buffer stability assay = type: physicochemical
# Method: A sample of 100 μM of the electrophile (1a–1p) was incubated with 100 μM 4-nitrocyanobenzene as an internal standard in a 100 mM potassium phosphate buffer of pH 8.0. All solvents were bubbled with argon. Reaction mixtures were kept at 37 °C with shaking. After 4 days (unless otherwise mentioned), 5 μL from the reaction mixture was injected into the LC/MS to check the stability of the compounds.
# Mino cells = assay: Degradation proteomics (label-free quantitative proteomics); type: cell-based, human; settings: 1n 500 nM, 24 h
# Method: A total of 1 × 10^6 Mino cells were treated in four replicates with either 1n (500 nM) or DMSO (0.1%) for 24 h. Cells were then harvested and washed with ice cold PBS. Samples were then centrifuged at 200 rcf, 4 °C for 5 min; then the supernatant was removed and the samples were frozen at −80 °C. Samples were dispersed in 75 μL of 50 mM ammonium bicarbonate and transferred to 1.8 mL glass vials. A 75 μL amount of 10% SDS in 50 mM ammonium bicarbonate was added, and the samples were heated to 96 °C for 6 min. The samples were sonicated thoroughly in a sonication bath until the DNA was sheared, as indicated by reduction in viscosity to a level enabling easy pipettation. Total protein concentration was estimated using the BCA assay, and 30 μg from each sample was taken for LC/MS/MS analysis. The detailed procedure is available in the Supplementary Methods Section.
# Trypsin/P with a maximum number of missed cleavages of 2. Oxidation of methionine and N-terminal acetylation were included as variable modifications. The “Re-quantify” option was enabled. Carbamidomethyl (C2H3NO) was used as a fixed modification on cysteine.
# Contaminants were included. Peptides were searched with a minimum peptide length of 7 and a maximum peptide mass of 6500 Da. “Second peptides” was enabled, “Dependent peptides” were disabled and the option “Match between run” was enabled with a Match time window of 0.7 min and an alignment window of 20 min. An FDR of 0.01 was used for Protein FDR, PSM FDR and XPSM FDR. Proteins were identified and quantified based on the label-free quantification (LFQ) (REF: www.mcponline.org/content/13/9/2513.short) values reported by MaxQuant. Following MaxQuant analysis, proteins identified only through razor peptides or modified peptides, as well as common contaminants, were removed, and only proteins that gave at least 3 non-zero LFQ intensity values in at least one of the data sets were retained for analysis. Missing values were then replaced from a normal distribution.
# Degradation proteomics experiment (label free quantitative proteomics)
# Sample preparation: 106 Mino cells were treated in four replicates with either compound or DMSO for 24 hours. Cells were then washed twice by centrifuge at 200 rcf, 4°C for 5 minutes, removing the supernatant and washed with ice cold PBS. Samples were then centrifuged at 200 rcf, 4°C for 5 minutes, then supernatant was removed and samples were frozen at -80°C. Samples were dispersed in 75 μl of 50 mM ammonium bicarbonate, and transferred to 1.8 mL glass vials.
# 75 μl of 10% SDS in 50 mM ammonium bicarbonate were added and the samples were heated to 96°C for 6 minutes. The samples were sonicated thoroughly in a sonication bath until the DNA was sheared as indicated by reduction in viscosity to level enabling easy pipettation. Total protein concentration was estimated using BCA assay and 30 µg from each sample was taken for the […]
# The samples were reduced by the addition of 1/20 volume of 100 mM DTT and heating to 60°C for 45 minutes. The samples were cooled to room temperature, and 1/20 volume of 200 mM iodoacetamide was added and the reaction was performed in the dark for 30 minutes.
# At this point, 1/10 volume of 12% phosphoric acid was added, followed by 6 volumes of 90% methanol in 50 mM ammonium bicarbonate. The samples were loaded on S-trap Micro columns (Protify), and washed 3 times with 90% methanol in 50 mM ammonium bicarbonate. The columns were spun without washing to dry the methanol. […]
# BTK [4] = biological target: T1, BTK; assay: BTK activity in Mino cells (autophosphorylation); type: cell-based; parameters: We incubated Mino B cells with probes containing different tags; endogenous in cells; host or cells: Mino cells; settings: Mino cells, 1 h; 100 nM probes, 1 μM ibrutinib or Ibr-H
# Method: The cells were harvested, and immunoblots of phospho-BTK, total-BTK, and β-actin were performed.
# Cell pellets were washed with ice-cold PBS and lysed using RIPA buffer (Sigma, R0278). […] Samples containing 50 μg of total protein were prepared with 4× LDS sample buffer (NuPAGE, Thermo Fischer Scientific, NP0007) and were then resolved on a 4–20% Bis-Tris gel (GeneScript SurePAGE, M00657). […] The EZ-ECL kit (Biological Industries, 20-500-1000) was used to detect HRP activity.
# Target sequence in this assay (Q06187 whole entry, the tested form may be a part): as above
# primary mouse B cells = assay: B-cell response experiment (CD86 after anti-IgM); type: cell-based; settings: 24 h treatment, 1–1000 nM
# Method: Splenic cells from C57BL/6 mice were isolated by forcing spleen tissue through the mesh into PBS containing 2% fetal calf serum and 1 mM EDTA, and red blood cells were depleted by lysis buffer. […] Following a 24 h incubation, cells were stimulated with anti-IgM overnight (5 μg/mL, Sigma-Aldrich). […] Single-cell suspensions were analyzed by a flow cytometer (CytoFlex, Beckman Coulter).
# [5] = biological target: ubiquitin C-terminal hydrolase L3; parameters: method as in selleck (supplier comment); settings: ref selleck (supplier comment); cited from earlier work
# [6] = phosphate buffer pH 8, 37 °C, in 2 days
# [7] = Dataset S2A, 200 μM compound, BTK-1h, 32 °C, 10 min
smiles,measurement,setting,value
C#CCCNC(=O)C(=C)CN1CCC(CNc2ncnc(N)c2-c2ccc(Oc3ccccc3)cc2)CC1 [2a],single labeling of target (BTK),BTK kinase domain,100%
O=C1CCC(N2C(=O)c3cccc(O)c3C2=O)C(=O)N1 (stereo not drawn) [thalidomide-OH],rescue of 1n-induced BTK degradation,BTK [1]; Mino cells pretreated 2 h before PROTAC 24 h,able to rescue the degradation
"Cc1cc(Nc2cc(N3CCN(C)CC3)nc(/C=C/c3ccccc3)n2)n[nH]1 [PCM-0095056-003, ENMD-2076]",BTK Inhibition reported in luminescence assay*,BTK [2],91
same,IC50,Aurora A,14 nM
Cc1cc(Nc2cc(N3CCN(C)CC3)nc(/C=C/c3ccccc3)n2)n[nH]1.O=C(O)C(O)C(O)C(=O)O [ENMD-2076 L-(+)-Tartaric acid],selectivity for Aurora A over Aurora B,Aurora A,25 fold
same,FI (650)/FI (620),"BTK-1h; Dataset S2C, BTK-1h with inhibitor",1.943
C#CCCCCC(=O)NC1CCN(C(=O)C(=C)CN2CCC[C@@H](n3nc(-c4ccc(Oc5ccccc5)cc4)c4c(N)ncnc43)C2)CC1 [1d],half-life at 100 μM,GSH reactivity assay; 100 μM compound,> 100 h
same,less reactive toward GSH than ibrutinib,"GSH reactivity assay; 5 mM GSH, pH 8",> 20 fold
same,labeling of BTK in live Mino cells,BTK [3],labeled BTK with more selectivity
C=C(CN1CCC[C@@H](n2nc(-c3ccc(Oc4ccccc4)cc3)c3c(N)ncnc32)C1)C(=O)OCC [1a],time to complete reaction with GSH,"GSH reactivity assay; 100 μM compound, 5 mM GSH, pH 8, 14 °C",≤ 10 min
same,half-life at 100 μM,GSH reactivity assay; 100 μM compound,< 0.167 h
same,hydrolysis/elimination,"Buffer stability assay; PBS buffer pH 8, 37 °C, in two days",100%
same,elimination,Buffer stability assay; [6],50%
same,hydrolysis,Buffer stability assay; [6],50%
C=C(CN1CCC[C@@H](n2nc(-c3ccc(Oc4ccccc4)cc3)c3c(N)ncnc32)C1)C(=O)NCCOCCOCCOCCOCCNc1cccc2c1C(=O)N(C1CCC(=O)NC1=O)C2=O (stereo partly drawn) [1n],DC50,BTK [1]; read-out: DC50,< 100 nM
same,DC50,BTK [1]; read-out: DC50 according to the polynomial fit,11.4 nM
same,water adduct formed,"Buffer stability assay; PBS buffer pH 8, 37 °C",15%
same,Log2(DMSO/treated),Mino cells; BTK_HUMAN,4.3089
same,Log2(DMSO/treated),Mino cells; EXOS4_HUMAN,1.641
same,Log2(DMSO/treated),Mino cells; H14_HUMAN;H11_HUMAN;H1T_HUMAN,1.44
same,depletion of BTK,Mino cells; Mino cells,more than 16 fold
same,depletion of CSK,Mino cells; Mino cells,more than 50%
C=C(CN1CCC[C@@H](n2nc(-c3ccc(Oc4ccccc4)cc3)c3c(N)ncnc32)C1)C(=O)NCCNC(=O)CCC(=O)N1Cc2ccccc2C#Cc2ccccc21 [1f],BTK autophosphorylation after anti-IgM,BTK [4],did not affect the activity
same,buffer stability,"Buffer stability assay; phosphate buffer pH 8, 37 °C, 4 days",No further hydrolysis has been observed under these buffer conditions
same,labeling of BTK in live Mino cells,BTK [3],labeled BTK at a concentration of 100 nM
same,time to robust labeling of BTK in cells,"BTK [3]; Mino cells, 100 nM probe",30 to 60 min
same,B cell activation (CD86 expression) after anti-IgM,primary mouse B cells,did not inhibit the activation of B cells
"O=C1CC(=O)c2c(Cl)c(Cl)c(Cl)c(Cl)c21 [PCM-0215201-001, TCID]",IC50,[5],600 nM
same,selectivity to L1,[5],125 fold
same,BTK Inhibition reported in luminescence assay*,BTK [2],79.5
same,FI (650)/FI (620),BTK-1h; [7],25.7359
same,FI (BTK-1h)/FI (BTK-1h+Inhibitor) at 620 nm,BTK-1h; [7],0.9352
same,FI (BTK-1h)/FI (BTK-1h+Inhibitor) at 620 nm,"BTK-1h; Dataset S2B, 200 μM inhibitor added to BTK-1h (2 μm)",25.7359
